Data reported in ChEMBL document CHEMBL1152976, “Dracotanosides A-D, spermidine glycosides from Dracocephalum tanguticum: structure and amide rotational barrier” (J Nat Prod, 2009).

Tests used:
K562 = experiment: Cytotoxicity against human drug-sensitive K562 cells after 48 hrs by MTT assay; format: functional, cell-based; settings: K562, 48 h
[1] = Cytotoxicity against human drug-resistant K562/A02 cells after 48 hrs by MTT assay; format: functional, cell-based; settings: K562/A02, 48 h

Compound | IC50 (K562) [µM] | IC50 [1] [µM]
O=C1CCN[C@@H](c2ccc(O)cc2)CCCN(C(=O)/C=C\c2ccccc2)CCCN1 | > 200 | > 200
C[C@H]1O[C@@H](Oc2ccc([C@H]3CCCN(C(=O)/C=C\c4ccccc4)CCCNC(=O)CCN3)cc2)[C@@H](O)[C@@H](O)[C@@H]1O [DRACOTANOSIDE C] | > 200 | > 200
C[C@H]1O[C@@H](Oc2ccc([C@H]3CCCN(C(=O)/C=C/c4ccccc4)CCCNC(=O)CCN3)cc2)[C@@H](O)[C@@H](O)[C@@H]1O [DRACOTANOSIDE D] | > 200 | > 200
C[C@@H]1O[C@@H](Oc2ccc([C@H]3CCCN(C(=O)/C=C\c4ccccc4)CCCNC(=O)CCN3)cc2)[C@H](O[C@@H]2O[C@H](COC(=O)c3ccccc3)[C@@H](O)[C@H](O)[C@H]2O)[C@H](O)[C@H]1O [DRACOTANOSIDE A] | > 200 | > 200
C[C@@H]1O[C@@H](Oc2ccc([C@H]3CCCN(C(=O)/C=C/c4ccccc4)CCCNC(=O)CCN3)cc2)[C@H](O[C@@H]2O[C@H](COC(=O)c3ccccc3)[C@@H](O)[C@H](O)[C@H]2O)[C@H](O)[C@H]1O [DRACOTANOSIDE B] | > 200 | > 200
